Here are results for six compounds from paper PMC7669905, “A cellulose synthase-derived enzyme catalyses 3-O-glucuronosylation in saponin biosynthesis” (Nature Communications, 2020).

Common to all, as to type: cell-based
One experiment concerns the target T1, GuUGT73F13 (Glycyrrhiza uralensis, UniProt A0A6S4QPQ3).
T1 construct: gene UGT73F13; cDNA clone expressed in S. cerevisiae with A. thaliana UGD
T1 sequence (A0A6S4QPQ3 1-477): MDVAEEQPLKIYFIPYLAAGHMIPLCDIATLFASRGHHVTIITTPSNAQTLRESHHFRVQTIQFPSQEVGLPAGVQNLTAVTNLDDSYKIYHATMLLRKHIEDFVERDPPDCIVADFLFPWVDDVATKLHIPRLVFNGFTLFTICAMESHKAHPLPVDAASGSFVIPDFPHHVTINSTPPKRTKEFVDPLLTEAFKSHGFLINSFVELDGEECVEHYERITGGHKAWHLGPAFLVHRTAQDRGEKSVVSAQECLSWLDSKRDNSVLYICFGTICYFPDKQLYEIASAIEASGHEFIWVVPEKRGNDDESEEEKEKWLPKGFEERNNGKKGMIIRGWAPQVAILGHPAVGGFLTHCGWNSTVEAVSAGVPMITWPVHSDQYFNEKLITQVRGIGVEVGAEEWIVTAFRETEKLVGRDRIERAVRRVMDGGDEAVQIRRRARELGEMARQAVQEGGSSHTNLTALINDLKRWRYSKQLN
Kind of experiment: in vivo yeast assay, LC-MS of 3-O-monoglucoside. The following applies: glycyrrhetinic acid-producing yeast strain with UGD; donor endogenous UDP-glucose.

The next experiment deals with T2, GmCSyGT1 (Glycine max, UniProt A0A7I6PD81).
T2 construct: full-length cDNA, membrane protein, expressed in S. cerevisiae with A. thaliana UGD
T2 sequence (A0A7I6PD81 1-699): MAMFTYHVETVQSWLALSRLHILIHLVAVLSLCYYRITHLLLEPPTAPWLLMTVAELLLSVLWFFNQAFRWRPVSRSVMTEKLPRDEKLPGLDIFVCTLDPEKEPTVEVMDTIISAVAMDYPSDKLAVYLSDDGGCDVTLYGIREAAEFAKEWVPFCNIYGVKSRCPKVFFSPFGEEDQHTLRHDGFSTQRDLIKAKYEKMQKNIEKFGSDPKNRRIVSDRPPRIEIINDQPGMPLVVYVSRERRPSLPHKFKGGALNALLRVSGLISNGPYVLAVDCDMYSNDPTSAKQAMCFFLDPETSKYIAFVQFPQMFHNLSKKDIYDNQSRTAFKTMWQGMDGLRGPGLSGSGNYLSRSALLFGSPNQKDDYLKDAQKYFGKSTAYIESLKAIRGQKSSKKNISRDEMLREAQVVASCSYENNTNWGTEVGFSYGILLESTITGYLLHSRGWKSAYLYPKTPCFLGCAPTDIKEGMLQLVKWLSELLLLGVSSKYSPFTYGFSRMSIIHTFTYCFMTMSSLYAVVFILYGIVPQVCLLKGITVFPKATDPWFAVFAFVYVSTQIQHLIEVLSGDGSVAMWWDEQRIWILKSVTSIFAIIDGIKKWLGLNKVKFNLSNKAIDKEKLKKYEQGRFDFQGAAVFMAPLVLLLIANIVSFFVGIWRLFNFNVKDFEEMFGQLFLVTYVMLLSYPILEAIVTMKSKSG
In words: in vivo yeast assay, LC-MS of monoglucuronide. The following applies: yeast strain with co-expressed UGD; endogenous UDP-glucuronic acid; 30 °C, 5 days.

The next experiment has as its target T3, LjCSyGT (Lotus japonicus, UniProt A0A7I6P8A1).
T3 construct: cDNA clone, ER membrane protein, expressed in S. cerevisiae with A. thaliana UGD
T3 sequence (A0A7I6P8A1 1-694): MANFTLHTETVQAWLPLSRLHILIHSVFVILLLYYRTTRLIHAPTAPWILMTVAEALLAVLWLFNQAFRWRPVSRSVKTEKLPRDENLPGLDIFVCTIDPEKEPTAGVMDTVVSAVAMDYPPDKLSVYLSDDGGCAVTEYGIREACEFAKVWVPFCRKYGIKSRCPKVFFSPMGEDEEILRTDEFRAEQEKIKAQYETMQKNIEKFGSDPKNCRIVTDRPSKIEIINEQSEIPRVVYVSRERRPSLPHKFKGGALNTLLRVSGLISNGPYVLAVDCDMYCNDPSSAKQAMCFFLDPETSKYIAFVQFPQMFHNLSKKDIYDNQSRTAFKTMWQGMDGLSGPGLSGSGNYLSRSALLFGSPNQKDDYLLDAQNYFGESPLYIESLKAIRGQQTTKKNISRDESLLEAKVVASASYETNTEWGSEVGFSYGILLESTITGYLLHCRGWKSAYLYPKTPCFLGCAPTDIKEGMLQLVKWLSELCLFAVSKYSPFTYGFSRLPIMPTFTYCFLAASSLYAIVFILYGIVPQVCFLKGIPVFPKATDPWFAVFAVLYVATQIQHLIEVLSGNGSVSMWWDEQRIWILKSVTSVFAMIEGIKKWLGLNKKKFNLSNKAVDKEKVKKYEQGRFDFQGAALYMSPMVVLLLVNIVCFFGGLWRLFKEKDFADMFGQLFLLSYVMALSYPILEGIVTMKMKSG
In words: in vivo yeast assay, LC-MS of monoglucuronide. The following applies: yeast strain with co-expressed UGD; endogenous UDP-glucuronic acid; 30 °C, 5 days.

The target in experiment [1] is T4, GuCSyGT (Glycyrrhiza uralensis, UniProt A0A7I6P8N6).
T4 construct: full-length cDNA, ER membrane protein, expressed in S. cerevisiae with A. thaliana UGD
T4 sequence (A0A7I6P8N6 1-695): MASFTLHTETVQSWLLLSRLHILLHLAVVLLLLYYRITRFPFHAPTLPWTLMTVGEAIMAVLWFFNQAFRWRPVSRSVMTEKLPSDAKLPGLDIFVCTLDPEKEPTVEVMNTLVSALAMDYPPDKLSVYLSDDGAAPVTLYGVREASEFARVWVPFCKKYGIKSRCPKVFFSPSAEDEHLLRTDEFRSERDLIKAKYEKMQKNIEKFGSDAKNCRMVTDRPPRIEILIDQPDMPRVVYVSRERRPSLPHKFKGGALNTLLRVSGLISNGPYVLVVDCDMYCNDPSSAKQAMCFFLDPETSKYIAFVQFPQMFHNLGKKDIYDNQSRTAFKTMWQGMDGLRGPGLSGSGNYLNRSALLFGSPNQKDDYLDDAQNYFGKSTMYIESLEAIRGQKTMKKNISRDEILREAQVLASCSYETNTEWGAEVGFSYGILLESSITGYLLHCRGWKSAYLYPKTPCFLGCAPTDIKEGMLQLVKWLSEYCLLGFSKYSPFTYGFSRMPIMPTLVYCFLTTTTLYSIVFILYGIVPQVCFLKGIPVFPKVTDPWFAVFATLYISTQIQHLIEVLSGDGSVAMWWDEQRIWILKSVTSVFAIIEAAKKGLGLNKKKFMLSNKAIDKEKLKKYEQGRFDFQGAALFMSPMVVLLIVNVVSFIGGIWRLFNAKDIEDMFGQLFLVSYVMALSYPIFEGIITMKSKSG
In words: in vivo yeast assay, LC-MS of monoglucuronide. The following applies: yeast strain with co-expressed UGD; endogenous UDP-glucuronic acid; 30 °C, 5 days.

For a further experiment, the target named is T5, UGT73P12 (Glycyrrhiza uralensis, UniProt A0A5A4WN00).
T5 construct: expressed in S. cerevisiae in the reconstructed glycyrrhizin pathway (strain GL)
T5 sequence (A0A5A4WN00 1-506): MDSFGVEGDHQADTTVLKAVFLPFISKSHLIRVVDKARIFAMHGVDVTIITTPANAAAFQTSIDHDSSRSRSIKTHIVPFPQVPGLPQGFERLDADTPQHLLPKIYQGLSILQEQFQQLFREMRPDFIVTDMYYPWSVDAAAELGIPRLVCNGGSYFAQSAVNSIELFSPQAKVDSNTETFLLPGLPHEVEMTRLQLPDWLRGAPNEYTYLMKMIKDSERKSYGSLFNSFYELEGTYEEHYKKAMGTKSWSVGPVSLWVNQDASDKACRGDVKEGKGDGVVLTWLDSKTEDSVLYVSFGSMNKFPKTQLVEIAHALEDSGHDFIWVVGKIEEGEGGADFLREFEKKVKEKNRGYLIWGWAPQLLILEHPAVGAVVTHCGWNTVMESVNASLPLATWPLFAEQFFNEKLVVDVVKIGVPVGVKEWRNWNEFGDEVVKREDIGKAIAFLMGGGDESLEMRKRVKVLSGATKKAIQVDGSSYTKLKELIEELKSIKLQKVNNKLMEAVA
In words: de novo pathway in yeast, LC-MS of glycyrrhizin. The settings on record: donor endogenous UDP-glucuronic acid (UGD); acceptor made in situ by CSyGT.

Experiment [2] has as its target T4, GuCSyGT. In words: in vivo yeast assay, LC-MS of products with and without UGD. The settings on record: sugar donor; acceptor glycyrrhetinic acid.
Another experiment addresses T6, GmCSyGT3 (Glycine max, UniProt A0A7I6P8J7).
T6 construct: full-length cDNA, membrane protein, expressed in S. cerevisiae with A. thaliana UGD
T6 sequence (A0A7I6P8J7 1-696): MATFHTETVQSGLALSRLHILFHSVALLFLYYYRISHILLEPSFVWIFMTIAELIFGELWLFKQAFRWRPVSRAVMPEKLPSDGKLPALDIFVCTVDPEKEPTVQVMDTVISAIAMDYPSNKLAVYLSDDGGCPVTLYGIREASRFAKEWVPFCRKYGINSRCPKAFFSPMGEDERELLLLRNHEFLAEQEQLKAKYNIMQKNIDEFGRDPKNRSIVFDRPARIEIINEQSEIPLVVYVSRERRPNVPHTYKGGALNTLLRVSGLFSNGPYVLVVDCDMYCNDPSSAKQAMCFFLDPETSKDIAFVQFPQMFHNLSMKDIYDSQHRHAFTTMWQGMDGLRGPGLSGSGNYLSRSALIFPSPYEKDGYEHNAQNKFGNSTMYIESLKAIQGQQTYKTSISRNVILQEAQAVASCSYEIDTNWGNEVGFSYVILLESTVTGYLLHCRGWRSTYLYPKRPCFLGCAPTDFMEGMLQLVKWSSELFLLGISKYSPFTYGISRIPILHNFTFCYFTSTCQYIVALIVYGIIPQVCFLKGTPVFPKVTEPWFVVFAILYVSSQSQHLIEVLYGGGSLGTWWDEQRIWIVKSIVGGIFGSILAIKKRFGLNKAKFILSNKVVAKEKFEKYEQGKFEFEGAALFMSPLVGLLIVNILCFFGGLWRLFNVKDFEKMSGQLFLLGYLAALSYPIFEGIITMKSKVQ
Kind of experiment: yeast feeding assay, LC-MS of monoglucuronide. The following applies: 10 µM substrate fed to yeast with co-expressed UGD.

For `CC1(C)[C@@H](O)CC[C@]2(C)[C@H]3C(=O)C=C4[C@@H]5C[C@@](C)(C(=O)O)CC[C@]5(C)CC[C@@]4(C)[C@]3(C)CC[C@@H]12` [GA, glycyrrhetinic acid], the “in vivo yeast assay, LC-MS of 3-O-monoglucoside” value on GuUGT73F13 is listed as “GuUGT73F13, which catalyses 3-O-glucosylation of glycyrrhetinic acid”. Moreover, the “in vivo yeast assay, LC-MS of monoglucuronide” value on GmCSyGT1 is “All of the CSyGT-expressing strains produced the corresponding monoglucuronides”; on LjCSyGT, “The low catalytic activity of LjCSyGT for glycyrrhetinic and oleanolic acids”; at GuCSyGT [1], “All of the CSyGT-expressing strains produced the corresponding monoglucuronides”. In the case of `CC1(C)[C@@H](O[C@@H]2O[C@H](C(=O)O)[C@@H](O)[C@H](O)[C@H]2O)CC[C@]2(C)[C@H]3C(=O)C=C4[C@@H]5C[C@@](C)(C(=O)O)CC[C@]5(C)CC[C@@]4(C)[C@]3(C)CC[C@@H]12` [GA–GlcA, glycyrrhetinic acid-3-O-monoglucuronide], the “de novo pathway in yeast, LC-MS of glycyrrhizin” value on UGT73P12 is reported as “Since the product is quickly converted into glycyrrhizin in GL strains”. For the compound `O=C(O)[C@H]1O[C@H](OP(=O)(O)OP(=O)(O)OC[C@H]2O[C@@H](n3ccc(=O)[nH]c3=O)[C@H](O)[C@@H]2O)[C@H](O)[C@@H](O)[C@@H]1O` [UDP-glucuronic acid], the “in vivo yeast assay, LC-MS of products with and without UGD” value on GuCSyGT [2] is on record as “GuCSyGT preferentially selects UDP-glucuronic acid as the sugar donor”.

For the compound `C=C(C)[C@@H]1CC[C@]2(C(=O)O)CC[C@]3(C)[C@H](CC[C@@H]4[C@@]5(C)CC[C@H](O)C(C)(C)[C@@H]5CC[C@]43C)[C@@H]12` [betulinic acid], at GmCSyGT3, the “yeast feeding assay, LC-MS of monoglucuronide” value is “GmCSyGT3 showed catalytic activity against the triterpenoid aglycones, ursolic acid and betulinic acid”.

For `CC1(C)C[C@@H](O)[C@]2(C)CC[C@]3(C)C(=CC[C@@H]4[C@@]5(C)CC[C@H](O)[C@](C)(CO)[C@@H]5CC[C@]43C)[C@@H]2C1` [soyasapogenol B], the “in vivo yeast assay, LC-MS of monoglucuronide” value at GmCSyGT1 and at LjCSyGT was “all three had similar levels of catalytic activity for soyasapogenol B” throughout. As to `C[C@H]1[C@H](C)CC[C@]2(C(=O)O)CC[C@]3(C)C(=CC[C@@H]4[C@@]5(C)CC[C@H](O)C(C)(C)[C@@H]5CC[C@]43C)[C@H]12` [ursolic acid], the “yeast feeding assay, LC-MS of monoglucuronide” value on GmCSyGT3 is “GmCSyGT3 showed catalytic activity against the triterpenoid aglycones, ursolic acid and betulinic acid”.
